From patent US7732604B2, “Triazolopyrazine derivatives” (Pfizer Inc., priority 2006, dated 2010)

biological target: T1, HGFR (Homo sapiens, UniProt P08581); test: HGFR continuous-coupled spectrophotometric assay (tyrosine kinase activity on Met-2 substrate peptide); format: biochemical; conditions: HGFR 50 nM, Met-2 peptide 0.5 mM, ATP 300 μM, 37° C., absorbance 340 nm; read-out: Ki
T1 construct: purchased Upstate 14-526
T1 sequence (P08581 974-1390 limits assumed): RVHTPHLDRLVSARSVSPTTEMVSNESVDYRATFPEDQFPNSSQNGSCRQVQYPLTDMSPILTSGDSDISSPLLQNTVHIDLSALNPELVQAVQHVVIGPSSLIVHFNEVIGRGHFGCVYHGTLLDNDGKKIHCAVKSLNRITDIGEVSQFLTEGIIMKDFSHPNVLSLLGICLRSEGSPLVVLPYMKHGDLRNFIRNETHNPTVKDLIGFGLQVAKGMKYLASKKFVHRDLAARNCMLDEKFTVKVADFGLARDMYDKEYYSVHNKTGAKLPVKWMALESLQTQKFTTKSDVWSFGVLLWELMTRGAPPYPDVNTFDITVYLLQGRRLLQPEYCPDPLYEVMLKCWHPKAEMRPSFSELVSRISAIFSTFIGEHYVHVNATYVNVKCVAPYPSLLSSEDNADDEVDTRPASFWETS

SMILES	Ki
Cc1c(CNc2cnc3nnn(Cc4ccc5ncccc5c4)c3n2)cnn1C [Example 128, N-[(15-di-methyl-1H-pyra-zol-4-yl)meth-yl]-1-(quino-lin-6-yl-methyl)-1H-[1,2,3]tri-azolo[4,5-b]pyra-zin-6-amine]	28 nM
OC[C@H]1C[C@@H]1CNc1cnc2nnn(Cc3ccc4ncccc4c3)c2n1 [Example 129, [(1S,2S)-2-({[1-(quino-lin-6-yl-methyl)-1H-[1,2,3]tri-azolo[4,5-b]pyrazin-6-yl]ami-no}methyl)cyclo-propyl]methanol]	13 nM
CC1(CNc2cnc3nnn(Cc4ccc5ncccc5c4)c3n2)COC1 [Example 130, N-[(3-methyl-oxetan-3-yl)meth-yl]-1-(quino-lin-6-yl-methyl)-1H-[1,2,3]tri-azolo[4,5-b]pyra-zin-6-amine]	7 nM
O[C@@H]1COC[C@H]1Nc1cnc2nnn(Cc3ccc4ncccc4c3)c2n1 [Example 131, (3S4R)-4-{[1-(quino-lin-6-yl-methyl)-1H-[123]tri-azolo[45-b]pyra-zin-6-yl]ami-no}tetrahydro-furan-3-ol]	54 nM
CCOCC(O)CNc1cnc2nnn(Cc3ccc4ncccc4c3)c2n1 (stereo not drawn) [Example 132, 1-ethoxy-3-{[1-(quino-lin-6-yl-methyl)-1H-[123]tri-azolo[45-b]pyra-zin-6-yl]ami-no}propan-2-ol]	8 nM
CC(C)(C)OC(=O)NC[C@H]1CCN(c2cnc3nnn(Cc4ccc5ncccc5c4)c3n2)C1 [Example 133, tert-butyl ({(3R)-1-[1-(quino-lin-6-yl-methyl)-1H-[1,2,3]tri-azolo[4,5-b]pyra-zin-6-yl]pyrro-lidin-3-yl}meth-yl)carbamate]	51 nM
CN[C@@H]1CCN(c2cnc3nnn(Cc4ccc5ncccc5c4)c3n2)C1 [Example 134, (3R)-N-methyl-1-[1-(quino-lin-6-yl-methyl)-1H-[1,2,3]tri-azolo[4,5-b]pyra-zin-6-yl]pyrro-lidin-3-amine]	7 nM
CNC1CCN(c2cnc3nnn(Cc4ccc5ncccc5c4)c3n2)CC1 [Example 135, N-methyl-1-[1-(quino-lin-6-yl-methyl)-1H-[1,2,3]tri-azolo[4,5-b]pyra-zin-6-yl]pipe-ridin-4-amine]	35 nM
NC[C@H]1CCN(c2cnc3nnn(Cc4ccc5ncccc5c4)c3n2)C1 [Example 136, 1-[(3R)-1-[1-(quino-lin-6-yl-methyl)-1H-[1,2,3]tri-azolo[4,5-b]pyra-zin-6-yl]pyrro-lidin-3-yl}methanamine]	30 nM
NCCNc1cnc2nnn(Cc3ccc4ncccc4c3)c2n1 [Example 137, N-[1-(quinolin-6-yl-methyl)-1H-[1,2,3]tri-azolo[4,5-b]pyra-zin-6-yl]eth-ane-1,2-diamine]	27 nM
CC(C)(CO)Nc1cnc2nnn(Cc3ccc4ncccc4c3)c2n1 [Example 139, 2-methyl-2-{[1-(quino-lin-6-yl-methyl)-1H-[1,2,3]tri-azolo[4,5-b]pyra-zin-6-yl]ami-no}propan-1-ol]	21 nM
NC(=O)CNc1cnc2nnn(Cc3ccc4ncccc4c3)c2n1 [Example 140, N~2~-[1-(quino-lin-6-yl-methyl)-1H-[1,2,3]tri-azolo[4,5-b]pyra-zin-6-yl]glycinamide]	47 nM
CC(C)(N)CNc1cnc2nnn(Cc3ccc4ncccc4c3)c2n1 [Example 141, 2-methyl-N~1~-[1-(quino-lin-6-yl-methyl)-1H-[1,2,3]tri-azolo[4,5-b]pyra-zin-6-yl]pro-pane-1,2-diamine]	6 nM
c1cnc2ccc(Cn3nnc4ncc(OC5CCOCC5)nc43)cc2c1 [Example 142, 6-{[6-(tetra-hydro-2H-py-ran-4-yloxy)-1H-[1,2,3]tri-azolo[4,5-b]pyra-zin-1-yl]meth-yl}quinoline]	49 nM
c1cnc2ccc(Cn3nnc4ncc(NC5CCOCC5)nc43)cc2c1 [Example 143, 1-(quinolin-6-yl-methyl)-N-(tetra-hydro-2H-py-ran-4-yl)-1H-[1,2,3]tri-azolo[4,5-b]py-razin-6-amine]	9 nM
FC(F)CNc1cnc2nnn(Cc3ccc4ncccc4c3)c2n1 [Example 144, N-(2,2-di-fluoroethyl)-1-(quino-lin-6-yl-methyl)-1H-[1,2,3]tri-azolo[4,5-b]pyra-zin-6-amine]	3 nM
c1cnc2ccc(Cn3nnc4ncc(NC5CCOC5)nc43)cc2c1 (stereo not drawn) [Example 145, 1-(quinolin-6-yl-methyl)-N-(tetra-hydrofuran-3-yl)-1H-[1,2,3]tri-azolo[4,5-b]pyra-zin-6-amine]	5 nM
c1cnc2ccc(Cn3nnc4ncc(NC5CCOC5)nc43)cc2c1 (stereo not drawn) [Example 146, 1-(quinolin-6-yl-methyl)-N-(tetra-hydrofuran-3-yl)-1H-[1,2,3]triazolo[4,5-b]pyra-zin-6-amine]	7 nM
FC1CCN(C2CCN(c3cnc4nnn(Cc5ccc6ncccc6c5)c4n3)C2)CC1 (stereo not drawn) [Example 147, 6-({6-[3-(4-fluoro-piperidin-1-yl)pyrro-lidin-1-yl]-1H-[1,2,3]tri-azolo[4,5-b]pyra-zin-1-yl}meth-yl)quinoline]	34 nM
FC1(F)CCN(C2CCN(c3cnc4nnn(Cc5ccc6ncccc6c5)c4n3)C2)C1 (stereo not drawn) [Example 149, 6-{[6-(3,3-di-fluoro-1,3′-bi-pyrrolidin-1′-yl)-1H-[1,2,3]tri-azolo[4,5-b]pyra-zin-1-yl]meth-yl}quinoline]	15 nM

SMILES	Ki
OC1(C(F)(F)F)CCN([C@@H]2CCN(c3cnc4nnn(Cc5ccc6ncccc6c5)c4n3)C2)CC1 [Example 151, 1-{(3R)-1-[1-(quino-lin-6-yl-methyl)-1H-[1,2,3]tri-azolo[4,5-b]pyra-zin-6-yl]pyrro-lidin-3-yl}-4-(tri-fluoromethyl)pipe-ridin-4-ol]	20 nM
Fc1cc2ncccc2cc1Cn1nnc2ncc(NC3CCOC3)nc21 (stereo not drawn) [Example 152, 1-[(7-fluoro-quinolin-6-yl)meth-yl]-N-(tetra-hydrofuran-3-yl)-1H-[1,2,3]tri-azolo[4,5-b]pyra-zin-6-amine]	1 nM
c1cnc2ccc(Cn3nnc4ncc(N5CC[C@@H](N6CCOCC6)C5)nc43)cc2c1 [Example 153, 6-({6-[(3R)-3-morpho-lin-4-ylpyrro-lidin-1-yl]-1H-[1,2,3]tri-azolo[4,5-b]pyra-zin-1-yl}meth-yl)quinoline]	15 nM
O=C1CCN(c2cnc3nnn(Cc4ccc5ncccc5c4)c3n2)C1 [Example 154, 1-[1-(quinolin-6-yl-methyl)-1H-[1,2,3]tri-azolo[4,5-b]pyra-zin-6-yl]pyrro-lidin-3-one]	39 nM
CNCC1(O)CCN(c2cnc3nnn(Cc4ccc5ncccc5c4)c3n2)C1 (stereo not drawn) [Example 155, 3-[(meth-ylamino)meth-yl]-1-[1-(quino-lin-6-yl-methyl)-1H-[1,2,3]tri-azolo[4,5-b]pyra-zin-6-yl]pyrro-lidin-3-ol]	43 nM
CN(C)CC1(O)CCN(c2cnc3nnn(Cc4ccc5ncccc5c4)c3n2)C1 (stereo not drawn) [Example 158, 3-[(di-methylamino)meth-yl]-1-[1-(quino-lin-6-yl-methyl)-1H-[1,2,3]tri-azolo[4,5-b]pyra-zin-6-yl]pyrro-lidin-3-ol]	31 nM
CN(C)c1cnc2nnn(Cc3ccc4ncccc4c3)c2n1 [Example 159, N,N-dimethyl-1-(quino-lin-6-yl-methyl)-1H-[1,2,3]tri-azolo[4,5-b]pyra-zin-6-amine]	13 nM
CCN(CC)c1cnc2nnn(Cc3ccc4ncccc4c3)c2n1 [Example 160, N,N-diethyl-1-(quino-lin-6-yl-methyl)-1H-[1,2,3]tri-azolo[4,5-b]pyra-zin-6-amine]	13 nM
CCCCOc1cnc2nnn(Cc3ccc4ncccc4c3)c2n1 [Example 161, 6-[(6-butoxy-1H-[1,2,3]tri-azolo[4,5-b]pyra-zin-1-yl)meth-yl]quinoline]	14 nM
NC(=O)c1cnc2nnn(Cc3ccc4ncccc4c3)c2n1 [Example 162, 1-(quinolin-6-yl-methyl)-1H-[1,2,3]tri-azolo[4,5-b]pyra-zine-6-carbox-amide]	17 nM
N#Cc1cnc2nnn(Cc3ccc4ncccc4c3)c2n1 [Example 163, 1-(quinolin-6-yl-methyl)-1H-[1,2,3]tri-azolo[4,5-b]pyra-zine-6-carbonitrile]	25 nM
c1cnc2ccc(Cn3nnc4ncc(N5CCCC5)nc43)cc2c1 [Example 164, 6-[(6-pyrrolidin-1-yl-1H-[1,2,3]tri-azolo[4,5-b]pyra-zin-1-yl)meth-yl]quinoline]	14 nM
c1cnc2ccc(Cn3nnc4ncc(N5CCC5)nc43)cc2c1 [Example 165, 6-[(6-azetidin-1-yl-1H-[1,2,3]tri-azolo[4,5-b]pyra-zin-1-yl)meth-yl]quinoline]	26 nM
CC(C)Nc1cnc2nnn(Cc3ccc4ncccc4c3)c2n1 [Example 166, N-isopropyl-1-(quino-lin-6-yl-methyl)-1H-[1,2,3]tri-azolo[4,5-b]pyra-zin-6-amine]	4 nM
CC(C)(O)CNc1cnc2nnn(Cc3ccc4ncccc4c3)c2n1 [Example 167, 2-methyl-1-{[1-(quino-lin-6-ylmeth-yl)-1H-[1,2,3]tri-azolo[4,5-b]pyra-zin-6-yl]ami-no}propan-2-ol]	13 nM
COCCOc1cnc2nnn(Cc3ccc4ncccc4c3)c2n1 [Example 169, 6-{[6-(2-methoxy-ethoxy)-1H-[1,2,3]tri-azolo[4,5-b]pyra-zin-1-yl]meth-yl}quinoline]	26 nM
Fc1cc2ncccc2cc1Cn1nnc2ncc(N3CC[C@@H](N4CCOCC4)C3)nc21 [Example 171, 7-fluoro-6-({6-[(3R)-3-morpho-lin-4-yl-pyrrolidin-1-yl]-1H-[1,2,3]tri-azolo[4,5-b]pyra-zin-1-yl}meth-yl)quinoline]	10 nM
CC(C)(O)CNc1cnc2nnn(Cc3cc4cccnc4cc3F)c2n1 [Example 172, 1-({1-[(7-fluoro-quinolin-6-yl)meth-yl]-1H-[1,2,3]tri-azolo[4,5-b]pyra-zin-6-yl}ami-no)-2-methyl-propan-2-ol]	4 nM
C[C@H](O)CNc1cnc2nnn(Cc3cc4cccnc4cc3F)c2n1 [Example 173, (2)-1-({1-[(7-fluoro-quinolin-6-yl)meth-yl]-1H-[1,2,3]tri-azolo[4,5-b]pyra-zin-6-yl}ami-no)propan-2-ol]	4 nM
